Where a name gives a salt, the structure may show the parent alone.
What was measured:
[1] = molecular target: T1, Recombinant human integrin ανβ3 (Homo sapiens, UniProt P05106+P06756); assay: Solid Phase Receptor Assay (SPRA) for ανβ3 function; assay type: binding; settings: for IC50: plate-bound human vitronectin, read-out: αvβ3 SPRA IC50
T1 construct: purchased R&D Systems 3050-AV
Method: C. Solid Phase Receptor Assay (SPRA) for ανβ3 Function
Wells were washed 3 times with 150 μL TBS+ and then 150 μL of blocking buffer (TBS+ with 1% bovine serum albumin, Sigma A7906) was added. The plate was incubated for 1 hr at 37° C. and then washed 3× with TBS+ buffer. […] Compounds were diluted to 20 μM and then 1 μL was added to each well of the plate according to a standard template with each sample repeated in triplicate. After incubation for two hours at room temperature, the plate was washed 3× with 150 μL of TBS+ buffer. To each well, 50 μL of biotinylated anti-αν antibody (R&D Systems, BAF1219) at 0.5 μg/mL in TBS+/0.1% BSA were added and the plate covered and incubated for 1 hr at room temperature. After washing the plate 3× with 150 μL of TBS+ buffer, 50 μL of streptavidin-conjugated horseradish peroxidase (R&D Systems, DY998) diluted in TBS+ blocking buffer were added to the wells and the plate incubated for 20 min at room temperature. The plate was washed 3× with TBS+ buffer followed by 50 μL of TMB substrate (Sigma, T4444) added to each well in the dark and the plate was incubated for 25 min at room temperature. 25 μL of 1.0 M phosphoric acid was added as a stop solution and the plates were read at 450 nm using a Spectramax plate reader.

[2] = molecular target: T2, Recombinant human integrin ανβ5 (Homo sapiens, UniProt P06756+P18084); assay: Solid Phase Receptor Assay (SPRA) for ανβ5 function; assay type: binding; settings: for IC50: plate-bound human vitronectin, read-out: αvβ5 SPRA IC50
T2 construct: purchased R&D Systems 2528-AV
T2 sequence (P06756 31-992 limits assumed): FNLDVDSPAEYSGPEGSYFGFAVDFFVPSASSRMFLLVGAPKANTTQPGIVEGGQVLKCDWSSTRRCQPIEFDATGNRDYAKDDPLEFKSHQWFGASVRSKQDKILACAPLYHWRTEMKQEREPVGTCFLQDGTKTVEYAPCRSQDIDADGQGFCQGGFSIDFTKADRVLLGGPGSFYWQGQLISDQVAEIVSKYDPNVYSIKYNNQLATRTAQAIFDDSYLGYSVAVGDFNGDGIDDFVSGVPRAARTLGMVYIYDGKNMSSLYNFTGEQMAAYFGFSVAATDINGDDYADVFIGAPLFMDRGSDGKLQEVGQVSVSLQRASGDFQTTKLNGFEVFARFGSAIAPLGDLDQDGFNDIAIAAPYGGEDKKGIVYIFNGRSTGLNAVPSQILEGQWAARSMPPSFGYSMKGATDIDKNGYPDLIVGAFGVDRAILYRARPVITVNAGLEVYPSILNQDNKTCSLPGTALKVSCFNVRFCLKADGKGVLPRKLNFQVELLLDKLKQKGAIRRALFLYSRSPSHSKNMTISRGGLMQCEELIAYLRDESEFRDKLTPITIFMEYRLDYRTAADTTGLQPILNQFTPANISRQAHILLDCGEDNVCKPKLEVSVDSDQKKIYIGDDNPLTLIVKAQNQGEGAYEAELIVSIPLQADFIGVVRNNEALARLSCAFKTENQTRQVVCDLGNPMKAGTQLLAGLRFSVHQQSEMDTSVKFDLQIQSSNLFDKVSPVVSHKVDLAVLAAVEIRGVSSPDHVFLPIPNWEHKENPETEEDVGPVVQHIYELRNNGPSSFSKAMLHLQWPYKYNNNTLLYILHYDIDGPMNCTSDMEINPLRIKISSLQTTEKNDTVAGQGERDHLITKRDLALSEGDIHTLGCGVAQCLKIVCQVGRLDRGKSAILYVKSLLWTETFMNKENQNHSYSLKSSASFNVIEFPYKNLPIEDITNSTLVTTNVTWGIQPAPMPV
T2 sequence (P18084 24-719 limits assumed): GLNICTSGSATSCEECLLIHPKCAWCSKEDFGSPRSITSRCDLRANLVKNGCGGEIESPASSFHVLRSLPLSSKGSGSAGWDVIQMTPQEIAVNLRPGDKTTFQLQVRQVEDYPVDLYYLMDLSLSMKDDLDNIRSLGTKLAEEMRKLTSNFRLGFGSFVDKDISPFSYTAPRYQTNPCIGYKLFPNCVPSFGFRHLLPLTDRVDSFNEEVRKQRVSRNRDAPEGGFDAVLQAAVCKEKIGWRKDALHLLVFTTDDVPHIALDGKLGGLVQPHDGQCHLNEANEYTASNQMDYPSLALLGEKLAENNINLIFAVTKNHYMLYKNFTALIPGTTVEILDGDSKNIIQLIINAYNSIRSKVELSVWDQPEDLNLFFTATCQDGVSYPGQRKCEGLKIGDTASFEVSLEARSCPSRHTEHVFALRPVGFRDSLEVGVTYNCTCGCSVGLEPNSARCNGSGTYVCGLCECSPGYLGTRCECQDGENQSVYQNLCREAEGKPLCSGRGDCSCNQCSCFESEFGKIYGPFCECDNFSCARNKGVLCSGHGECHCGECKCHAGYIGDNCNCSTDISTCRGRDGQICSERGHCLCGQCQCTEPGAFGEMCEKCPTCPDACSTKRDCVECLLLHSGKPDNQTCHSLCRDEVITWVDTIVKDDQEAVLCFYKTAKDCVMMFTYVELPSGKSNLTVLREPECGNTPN
Method: D. Solid Phase Receptor Assay (SPRA) for ανβ5 Function
Wells were washed 3 times with 150 μL TBS+ and then 150 μL of blocking buffer (TBS+ with 1% bovine serum albumin, Sigma A7906) was added. The plate was incubated for 1 hr at 37° C. and then washed 3× with TBS+ buffer. […] Compounds were diluted to 20 μM and then 1 μL was added to each well of the plate according to a standard template with each sample repeated in triplicate. After incubation for two hours at room temperature, the plate was washed 3× with 150 μL of TBS+ buffer. To each well, 50 μl of biotinylated anti-αν antibody (R&D Systems, BAF1219) at 0.5 μg/mL in TBS+/0.1% BSA at 0.5 μg/mL were added and the plate covered and incubated for 1 hr at room temperature. After washing the plate 3 with 150 μL of TBS+ buffer, 50 μL of streptavidin-conjugated horseradish peroxidase (R&D Systems, DY998) diluted in TBS+ blocking buffer were added to the wells and the plate incubated for 20 min at room temperature. The plate was washed 3× with TBS+ buffer followed by 50 μL of TMB substrate (Sigma T4444) added to each well in the dark and the plate incubated for 5 min at room temperature. 25 μL of 1.0 M phosphoric acid was added as a stop solution and the plates were read at 450 nm using a Spectramax plate reader.

T1 sequence (P06756 31-992 limits assumed): as the sequence (P06756 31-992 limits assumed) above
T1 sequence (P05106 27-718 limits assumed): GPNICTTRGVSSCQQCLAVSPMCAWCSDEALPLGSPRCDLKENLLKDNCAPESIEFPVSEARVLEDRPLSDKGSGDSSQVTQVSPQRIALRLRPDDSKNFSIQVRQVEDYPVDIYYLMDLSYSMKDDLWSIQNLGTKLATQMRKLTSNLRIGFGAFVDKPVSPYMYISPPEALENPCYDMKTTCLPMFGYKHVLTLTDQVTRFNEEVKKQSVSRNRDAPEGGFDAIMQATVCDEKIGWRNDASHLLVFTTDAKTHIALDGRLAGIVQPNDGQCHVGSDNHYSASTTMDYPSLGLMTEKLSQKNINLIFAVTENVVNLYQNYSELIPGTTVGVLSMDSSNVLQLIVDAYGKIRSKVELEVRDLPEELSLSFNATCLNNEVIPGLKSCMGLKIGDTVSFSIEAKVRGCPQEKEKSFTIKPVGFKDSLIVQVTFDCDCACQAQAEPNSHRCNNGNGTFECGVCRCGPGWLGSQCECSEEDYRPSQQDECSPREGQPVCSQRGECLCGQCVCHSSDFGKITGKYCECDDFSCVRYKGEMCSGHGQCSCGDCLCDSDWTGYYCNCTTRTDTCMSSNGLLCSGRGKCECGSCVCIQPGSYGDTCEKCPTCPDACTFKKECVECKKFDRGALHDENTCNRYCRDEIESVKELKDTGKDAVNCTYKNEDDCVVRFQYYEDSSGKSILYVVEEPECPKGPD

Compound | IC50 [1] | IC50 [2] | inhibitory activity at ανβ3 (in words) [1] | inhibitory activity at ανβ5 (in words) [2]
Cn1nc(CC(CC(=O)O)c2cc(C(F)(F)F)cc(C(C)(C)C(F)(F)F)c2)cc1OCCc1ccc2c(n1)NCCC2 (stereo not shown) [Example 25, 4-[1-methyl-5-[2-(5,6,7,8-tetrahydro-1,8-naphthyridin-2-yl)ethoxy]pyrazol-3-yl]-3-[3-(2,2,2-trifluoro-1,1-dimethylethyl)-5-(trifluoromethyl)phenyl]butanoic Acid] | 4.6 nM | 2.9 nM | – | –
Cn1nc(CC(CC(=O)O)c2cc(Br)cc(C(C)(C)C(F)(F)F)c2)cc1OCCc1ccc2c(n1)NCCC2 (stereo not shown) [Example 26, 3-[3-bromo-5-(2,2,2-trifluoro-1,1-dimethyl-ethyl)phenyl]-4-[1-methyl-5-[2-(5,6,7,8-tetrahydro-1,8-naphthyridin-2-yl)ethoxy]pyrazol-3-yl]butanoic Acid] | 9.6 nM | 1.8 nM | – | –
Cn1nc(CC(CC(=O)O)c2cc(Cl)cc(C(C)(C)C(F)(F)F)c2)cc1OCCc1ccc2c(n1)NCCC2 (stereo not shown) [Example 27, 3-(3-chloro-5-(1,1,1-trifluoro-2-methylpropan-2-yl)phenyl)-4-(1-methyl-5-(2-(5,6,7,8-tetrahydro-1,8-naphthyridin-2-yl)ethoxy)-1H-pyrazol-3-yl)butanoic Acid] | 5.6 nM | 0.5 nM | – | –
Cn1nc(CC(CC(=O)O)c2cc(C#N)cc(C(C)(C)C(F)(F)F)c2)cc1OCCc1ccc2c(n1)NCCC2 (stereo not shown) [Example 28, 3-[3-cyano-5-(2,2,2-trifluoro-1,1-dimethyl-ethyl)phenyl]-4-[1-methyl-5-[2-(5,6,7,8-tetrahydro-1,8-naphthyridin-2-yl)ethoxyl]pyrazol-3-yl]butanoic Acid Trifluoroacetate] | 10 nM | 0.8 nM | – | –
COCC1(c2cc(Cl)cc(C(CC(=O)O)Cc3cc(OCCc4ccc5c(n4)NCCC5)n(C)n3)c2)CCOCC1 (stereo not shown) [Example 29, 3-(3-chloro-5-(4-(methoxymethyl)tetrahydro-2H-pyran-4-yl)phenyl)-4-(1-methyl-5-(2-(5,6,7,8-tetrahydro-1,8-naphthyridin-2-yl)ethoxy)-1H-pyrazol-3-yl)butanoic Acid] | 5.3 nM | 0.5 nM | – | –
COCC1(c2cc(F)cc(C(CC(=O)O)Cc3cc(OCCc4ccc5c(n4)NCCC5)n(C)n3)c2)CCOCC1 (stereo not shown) [Example 30, 3-(3-fluoro-5-(4-(methoxymethyl)tetrahydro-2H-pyran-4-yl)phenyl)-4-(1-methyl-5-(2-(5,6,7,8-tetrahydro-1,8-naphthyridin-2-yl)ethoxy)-1H-pyrazol-3-yl)butanoic Acid] | 8.1 nM | 0.5 nM | – | –
COCC1(c2cc(C(CC(=O)O)Cc3cc(OCCc4ccc5c(n4)NCCC5)n(C)n3)cc(C(F)(F)F)c2)CCOCC1 (stereo not shown) [Example 31, 3-(3-(4-(methoxymethyl)tetrahydro-2H-pyran-4-yl)-5-(trifluoromethyl)phenyl)-4-(1-methyl-5-(2-(5,6,7,8-tetrahydro-1,8-naphthyridin-2-yl)ethoxy)-1H-pyrazol-3-yl)butanoic Acid] | 6.5 nM | 3.3 nM | – | –
COc1ccc(C(C)(C)C)cc1C(CC(=O)O)Cc1cc(OCCc2ccc3c(n2)NCCC3)n(C)n1 (stereo not shown) [Example 32, 3-(5-(tert-butyl)-2-methoxyphenyl)-4-(1-methyl-5-(2-(5,6,7,8-tetrahydro-1,8-naphthyridin-2-yl)ethoxy)-1H-pyrazol-3-yl)butanoic Acid] | 380 nM | 280 nM | low activity | low activity
COc1c(C(CC(=O)O)Cc2cc(OCCc3ccc4c(n3)NCCC4)n(C)n2)cccc1C(C)(C)C (stereo not shown) [Example 33, 3-(3-(tert-butyl)-2-methoxyphenyl)-4-(1-methyl-5-(2-(5,6,7,8-tetrahydro-1,8-naphthyridin-2-yl)ethoxy)-1H-pyrazol-3-yl)butanoic Acid] | 150 nM | 3.1 nM | – | –
COc1cc(C(C)(C)C)ccc1C(CC(=O)O)Cc1cc(OCCc2ccc3c(n2)NCCC3)n(C)n1 (stereo not shown) [Example 34, 3-(4-(tert-butyl)-2-methoxyphenyl)-4-(1-methyl-5-(2-(5,6,7,8-tetrahydro-1,8-naphthyridin-2-yl)ethoxy)-1H-pyrazol-3-yl)butanoic Acid] | 4.6 nM | 2.3 nM | – | –

Reference: patent US11306084B2, “Integrin antagonists” (Saint Louis University, priority 2016, dated 2022)
